Data on four compounds can be found in PMC9667936, “Functional mapping of the 14-3-3 hub protein as a guide to design 14-3-3 molecular glues” (Chemical Science, 2022).

The experiment has as its target T1, 14-3-3γ (Homo sapiens, UniProt P61981).
T1 construct: made in house; host or cells: E. coli NiCo21 (DE3)
T1 sequence (P61981 1-247): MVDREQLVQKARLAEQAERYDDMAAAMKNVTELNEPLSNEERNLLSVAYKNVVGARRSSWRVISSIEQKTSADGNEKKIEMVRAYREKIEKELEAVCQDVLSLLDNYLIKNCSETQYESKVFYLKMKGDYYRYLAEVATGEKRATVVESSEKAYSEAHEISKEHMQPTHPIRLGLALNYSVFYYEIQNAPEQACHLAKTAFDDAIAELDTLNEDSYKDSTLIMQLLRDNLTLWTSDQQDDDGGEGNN
As to the kind of experiment: Fluorescence anisotropy (FA) binary binding study: 14-3-3 titrated to fluorescein-labelled peptide. Particulars: for fold change in binding affinity on truncation: FA KD relative to the previous (one amino acid longer) peptide; for individual ΔΔG of removed residue: ΔG relative to the previously truncated peptide. As to the method: 14-3-3γ protein expression (FP/ITC experiments)
(§1) A pPROEX HTb expression vector encoding the human 14-3-3 protein gamma (14-3-3γ) with an N-terminal his6-tag was transformed by heat shock into NiCo21 (DE3) competent cells. Single colonies were cultured in 50 mL LB medium (100 µg/mL ampicillin). After overnight incubation at 37 °C, cultures were transferred to 2 L TB media (100 µg/mL ampicillin, 1 mM MgCl2) and incubated at 37 °C until an OD600 nm of 0.8-1.2 was reached. Protein expression was then induced with 0.4 mM isopropyl-β-d-thiogalactoside (IPTG), and cultures were incubated overnight at 18 °C. Cells were harvested by centrifugation (8600 rpm, 20 minutes, 4 °C) and resuspended in lysis buffer (50 mM Hepes, pH 8.0, 300 mM NaCl, 12.5 mM imidazole, 5 mM MgCl2, 2 mM βME) containing cOmplete™ EDTA-free Protease Inhibitor Cocktail tablets (1 tablet/100 ml lysate) and benzonase (1 µl/100 ml). After lysis using a C3 Emulsiflex-C3 homogenizer (Avestin), the cell lysate was cleared by centrifugation (20000 rpm, 30 minutes, 4 °C) and purified using Ni2+-affinity chromatography (Ni-NTA superflow cartridges, Qiagen).
Typically two 5 mL columns (flow 5 mL/min) were used for a 2 L culture in which the lysate was loaded on the column washed with 10 CV wash buffer (50 mM Hepes, pH 8.0, 300 mM NaCl, 25 mM imidazole, 2 mM βME) and eluted in several fractions (2-4 CV) of elution buffer (50 mM Hepes, pH 8.0, 300 mM NaCl, 250 mM imidazole, 2 mM βME). Fractions containing the 14-3-3 protein were combined and dialyzed into 25 mM HEPES pH 8.0, 100 mM NaCl, 10 mM MgCl2, 500 µM TCEP. Finally, the protein was concentrated to ∼60 mg/mL, analyzed Q-Tof LC/MS, and aliquots were flash-frozen for storage at […]
as §1, with “sigma truncated after T231 (14-3-3σΔc) and” for “gamma (14-3-3γ)”, “tablet/ 100” for “tablet/100”, “µl/ 100” for “µl/100”, “ml).” for “ml). After lysis using a C3 Emulsiflex-C3 homogenizer (Avestin), the cell lysate was cleared by centrifugation (20000 rpm, 30 minutes, 4 °C) and purified using Ni2+-affinity chromatography (Ni-NTA superflow cartridges, Qiagen).”
After lysis using a C3 Emulsiflex-C3 homogenizer (Avestin), the cell lysate was cleared by centrifugation (20000 rpm, 30 minutes, 4 °C) and purified using Ni2+-affinity chromatography (Ni-NTA superflow cartridges, Qiagen). Typically two 5 mL columns were used for a 2 L culture in which the lysate was loaded on the column washed with 10 CV wash buffer (50 mM Hepes, pH 8.0, 300 mM NaCl, 25 mM imidazole, 2 mM βME) and eluted with several fractions (2-4 CV) of elution buffer (50 mM Hepes, pH 8.0, 300 mM NaCl, 250 mM imidazole, 2 mM βME). Fractions containing the 14-3-3 protein were combined and dialyzed into 25 mM HEPES pH 8.0, 200 mM NaCl, 10 mM MgCl2, 2 mM βME. In addition, 1 mg TEV was added for each 100 mg purified protein to remove the purification tag. The cleaved sample was then again loaded on a 10 mL Ni-NTA column to separate the cleaved product from the expression tag and residual uncleaved protein. The flowthrough was loaded on a Superdex 75 pg 16/60 size exclusion column (GE Life Sciences) using 25 mM HEPES, 100 mM NaCl, 10 mM MgCl2, 500 μM TCEP (adjusted to pH=8.0) as running buffer. Fractions containing the 14-3-3 protein were pooled and concentrated to ∼60 mg/mL, analyzed Q-Tof LC/MS, and aliquots were flash-frozen for storage at −80 […]
The peptides 1 and 2a-d were synthesized on 50 µmol scale on a Rink amide MBHA resin […]
On the technique in general: Fluorescence polarisation rises when a labelled molecule tumbles more slowly, as on binding a larger partner.

Where [1] appears, read: Table S3, FA KD of peptide divided by KD of previous (one amino acid longer) peptide, mean of n = 3.
The mark [2] stands for this setting: Table S3, KD / KD of previous peptide, replicate 1.
Setting [3] is: Table S3, KD / KD of previous peptide, replicate 2.
[4] abbreviates: Table S3, KD / KD of previous peptide, replicate 3.
Where [5] appears, read: Table S3, calculated from FA KD, mean of n = 3.
Where [6] appears, read: Table S3, from FA KD, replicate 1.
Setting [7] is: Table S3, from FA KD, replicate 2.
The mark [8] stands for this setting: Table S3, from FA KD, replicate 3.
[9] abbreviates: Table S3, ΔG minus ΔG of previous peptide, FA, replicate 1.
The mark [10] stands for this setting: Table S3, ΔG minus ΔG of previous peptide, FA, replicate 2.
Where [11] appears, read: Table S3, ΔG minus ΔG of previous peptide, FA, replicate 3.
The mark [12] stands for this setting: Table S3, ΔG of peptide minus ΔG of previous (one amino acid longer) peptide, FA, mean of n = 3.
[13] abbreviates: Table S2, FA KD of peptide divided by KD of previous (one amino acid longer) peptide, mean of n = 3.
Where [14] appears, read: Table S2, KD / KD of previous (one amino acid longer) peptide, replicate 1.
[15] abbreviates: Table S2, KD / KD of previous (one amino acid longer) peptide, replicate 2.
[16] abbreviates: Table S2, KD / KD of previous (one amino acid longer) peptide, replicate 3.
Where [17] appears, read: Table S2, calculated from FA KD, mean of n = 3.
Setting [18] is: Table S2, from FA KD, replicate 1.
The mark [19] stands for this setting: Table S2, from FA KD, replicate 2.
Setting [20] is: Table S2, from FA KD, replicate 3.
The mark [21] stands for this setting: Table S2, ΔG minus ΔG of previous peptide, FA, replicate 1.
The mark [22] stands for this setting: Table S2, ΔG minus ΔG of previous peptide, FA, replicate 2.
[23] abbreviates: Table S2, ΔG minus ΔG of previous peptide, FA, replicate 3.
Setting [24] is: Table S2, ΔG of peptide minus ΔG of previous (one amino acid longer) peptide, FA, mean of n = 3.

SMILES strings stand for the structures. Where a SMILES comes first, the peptide text is derived from it. [ ]: non-standard residue; d: D form. The star is where a group is joined. ξ: configuration not given here. FITC = O=C1OC2(c3ccc(O)cc3Oc3cc(O)ccc32)c2ccc(NC(=S)*)cc21; Phe(4-NO2) = N[C@@H](Cc1ccc([N+](=O)[O-])cc1)C(=O)O; ξAla(4-thiazolyl) = NC(Cc1cscn1)C(=O)O; pS = N[C@@H](COP(=O)(O)O)C(=O)O; β3hS = N[C@@H](CO)CC(=O)O; Nva = CCC[C@H](N)C(=O)O; AEA = NCCOCC(=O)O; βAla = NCCC(=O)O

For `CCC[C@H](NC(=O)[C@@H](CCCCN)NC(=O)COCCNC(=S)Nc1ccc2c(c1)C(=O)OC21c2ccc(O)cc2Oc2cc(O)ccc21)C(=O)N[C@@H](Cc1ccc([N+](=O)[O-])cc1)C(=O)NC(Cc1cscn1)C(=O)N[C@@H](COP(=O)(O)O)C(N)=O` (stereo partly drawn) [2i] ({FITC-AEA}-[dK][Nva][Phe(4-NO2)][ξAla(4-thiazolyl)][pS]-NH2), the “fold change in binding affinity on truncation” value is “four-fold”. Also, the “cumulative ΔΔG of truncating the entire N- or C-terminus” value (FA, relative to peptide 1 (2d: entire N-terminus; 2i: entire C-terminus)) worked out at 4.3 kcal/mol. For the same compound, the “ΔΔG C-term (cumulative, whole C-terminus removed)” value (Table S3, C-term = 2i relative to 1, FA, mean of n = 3) is recorded as 4,31 kcal/mol. For the same compound, under “Table S3, C-term = 2i relative to 1, FA, replicate 1”, the “ΔΔG C-term (cumulative)” value is given as 4,39 kcal/mol. For the setting “Table S3, C-term = 2i relative to 1, FA, replicate 2”, the “ΔΔG C-term (cumulative)” value was 4,30 kcal/mol. Moreover, the “ΔΔG C-term (cumulative)” value (Table S3, C-term = 2i relative to 1, FA, replicate 3) is 4,23 kcal/mol. For the same compound, the “Fold change to previous” value under setting [1] is recorded as 4,04. Also, the “Fold change to previous” value under setting [2] was 4,23. Also, under setting [3], the “Fold change to previous” value is 3,56. For the same compound, the “Fold change to previous” value under setting [4] is 4,33. Moreover, the ΔG under setting [5] was -6,22 kcal/mol. Also, the ΔG under setting [6] is -6,22 kcal/mol. Also, the ΔG under setting [7] is on record as -6,25 kcal/mol. Besides, under setting [8], the ΔG is -6,18 kcal/mol. For the same compound, the “ΔΔG (to previous)” value under setting [9] is recorded as 0,85 kcal/mol. For the same compound, under setting [10], the “ΔΔG (to previous)” value was 0,75 kcal/mol. The “ΔΔG (to previous)” value under setting [11] was 0,87 kcal/mol. The “ΔΔG (to previous)” value under setting [12] is reported as 0,82 kcal/mol.
Turning to `CCC[C@H](N)C(=O)N[C@@H](Cc1ccc([N+](=O)[O-])cc1)C(=O)NC(Cc1cscn1)C(=O)N[C@@H](COP(=O)(O)O)C(=O)N[C@@H](Cc1ccc([N+](=O)[O-])cc1)C(=O)N[C@@H](CO)CC(=O)NCCC(=O)N[C@@H](Cc1ccc([N+](=O)[O-])cc1)C(=O)N[C@@H](CCCCN)C(=O)N[C@@H](C)C(=O)N[C@@H](CCCCNC(=S)Nc1ccc2c(c1)C(=O)OC21c2ccc(O)cc2Oc2cc(O)ccc21)C(N)=O` (stereo partly drawn) [2a] (H-[Nva][Phe(4-NO2)][ξAla(4-thiazolyl)][pS][Phe(4-NO2)][β3hS][βAla][Phe(4-NO2)]KAK(FITC)-NH2), the “individual ΔΔG of removed residue” value (FA) is recorded as “only minor energy contributions”. In addition, the “Fold change to previous” value under setting [13] is 1,98, the “Fold change to previous” value under setting [14] is listed as 1,72, the “Fold change to previous” value under setting [15] is on record as 2,56 and the “Fold change to previous” value under setting [16] is 1,66. The ΔG by setting is: under setting [17], -10,13 kcal/mol; under setting [18], -10,29 kcal/mol; under setting [19], -10,00 kcal/mol; under setting [20], -10,11 kcal/mol. The ΔΔG (to previous) is, setting by setting: under setting [21], 0,32 kcal/mol; under setting [22], 0,56 kcal/mol; under setting [23], 0,30 kcal/mol; under setting [24], 0,39 kcal/mol.
For `C[C@H](NC(=O)[C@H](CCCCN)NC(=O)[C@H](Cc1ccc([N+](=O)[O-])cc1)NC(=O)CCNC(=O)C[C@H](CO)NC(=O)[C@H](Cc1ccc([N+](=O)[O-])cc1)NC(=O)[C@H](COP(=O)(O)O)NC(=O)C(Cc1cscn1)NC(=O)[C@@H](N)Cc1ccc([N+](=O)[O-])cc1)C(=O)N[C@@H](CCCCNC(=S)Nc1ccc2c(c1)C(=O)OC21c2ccc(O)cc2Oc2cc(O)ccc21)C(N)=O` (stereo partly drawn) [2b] (H-[Phe(4-NO2)][ξAla(4-thiazolyl)][pS][Phe(4-NO2)][β3hS][βAla][Phe(4-NO2)]KAK(FITC)-NH2), under “FA”, the “individual ΔΔG of removed residue” value was “only minor energy contributions”. Also, the “Fold change to previous” value by setting is: under setting [13], 2,86; under setting [14], 3,64; under setting [15], 2,32; under setting [16], 2,61. The ΔG under setting [17] is listed as -9,52 kcal/mol, the ΔG under setting [18] is on record as -9,53 kcal/mol, the ΔG under setting [19] is -9,50 kcal/mol and the ΔG under setting [20] was -9,54 kcal/mol. The ΔΔG (to previous) was 0,76 kcal/mol under setting [21], 0,50 kcal/mol under setting [22], 0,57 kcal/mol under setting [23] and 0,61 kcal/mol under setting [24].
For the compound `CCC[C@H](NC(=O)[C@@H](CCCCN)NC(=O)COCCNC(=S)Nc1ccc2c(c1)C(=O)OC21c2ccc(O)cc2Oc2cc(O)ccc21)C(=O)N[C@@H](Cc1ccc([N+](=O)[O-])cc1)C(=O)NC(Cc1cscn1)C(=O)N[C@@H](COP(=O)(O)O)C(=O)N[C@@H](Cc1ccc([N+](=O)[O-])cc1)C(=O)N[C@@H](CO)CC(=O)NCCC(=O)N[C@@H](Cc1ccc([N+](=O)[O-])cc1)C(N)=O` (stereo partly drawn) [2e] ({FITC-AEA}-[dK][Nva][Phe(4-NO2)][ξAla(4-thiazolyl)][pS][Phe(4-NO2)][β3hS][βAla][Phe(4-NO2)]-NH2), the “fold change in binding affinity on truncation” value was “five-fold reduction”. Moreover, the “Fold change to previous” value under setting [1] is recorded as 5,55. In addition, the “Fold change to previous” value under setting [2] is given as 5,54. Moreover, the “Fold change to previous” value under setting [3] is on record as 7,13. For the same compound, the “Fold change to previous” value under setting [4] is recorded as 3,98. Under setting [5], the ΔG is recorded as -9,53 kcal/mol. Moreover, under setting [6], the ΔG is reported as -9,60 kcal/mol. For the same compound, the ΔG under setting [7] is listed as -9,39 kcal/mol. For the same compound, under setting [8], the ΔG is -9,59 kcal/mol. Moreover, the “ΔΔG (to previous)” value under setting [9] was 1,01 kcal/mol. In addition, the “ΔΔG (to previous)” value under setting [10] is 1,16 kcal/mol. In addition, under setting [11], the “ΔΔG (to previous)” value is reported as 0,82 kcal/mol. Besides, the “ΔΔG (to previous)” value under setting [12] is given as 1,00 kcal/mol.
